Data from US10035790B2, “RORγ modulators” (BRISTOL-MYERS SQUIBB COMPANY, priority 2012, dated 2018).

Target: T1, ligand binding domain of human RORγ (A262-S507) (Homo sapiens, UniProt P51449)
T1 construct: made in house; host or cells: E. coli
T1 sequence (P51449 262-507): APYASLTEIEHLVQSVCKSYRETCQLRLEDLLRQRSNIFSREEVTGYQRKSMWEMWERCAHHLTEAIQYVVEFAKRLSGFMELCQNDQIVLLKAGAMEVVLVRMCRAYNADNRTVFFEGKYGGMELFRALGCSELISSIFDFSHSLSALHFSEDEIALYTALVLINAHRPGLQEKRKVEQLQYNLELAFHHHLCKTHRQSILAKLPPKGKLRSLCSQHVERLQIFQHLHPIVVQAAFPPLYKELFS
Experiment: General RORγ SPA binding assay (competition with [3H]25-hydroxycholesterol)
Details: RORγ SPA binding assay, inhibition of [3H]25-hydroxycholesterol binding; read-out: IC50
Method in brief: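 Step one: compound meets 50 nM nickel-purified, His-tagged protein from E. coli for 15 min at room temperature (PBS, 0.5% fatty acid free BSA). Step two: radioligand is added for another 15 min. Step three: SPA beads are added for 30 min before scintillation reading and IC50 fitting.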

Row | IC50 [nM] | SMILES
1 | 620 | Cc1nc(C)c(-c2nc(-c3cccc(Cl)c3)no2)c(C2CCN(C(=O)Cc3c(F)cccc3F)CC2)n1 [Compound C4, 1-(4-(5-(3-(3-chlorophenyl)-1,2,4-oxadiazol-5-yl)-2,6-dimethylpyrimidin-4-yl)piperidin-1-yl)-2-(2,6-difluorophenyl)ethanone]
2 | 6.3 | Cc1nc(C)c(-c2nnc(-c3ccnc(C(F)(F)F)n3)o2)c(C2CCN(C(=O)Cc3c(F)cccc3F)CC2)n1 [Compound C5, 4-{1-[(2,6-Difluorophenyl)acetyl]piperidin-4-yl}-2,6-dimethyl-5-{5-[2-(trifluoromethyl)pyrimidin-4-yl]-1,3,4-oxadiazol-2-yl}pyrimidine]
3 | 5.2 | Cc1nc(C)c(-c2nnc(-c3cccc(C(F)(F)F)n3)o2)c(C2CCN(C(=O)Cc3c(F)cccc3F)CC2)n1 [Compound C6, 2-(2,6-difluorophenyl)-1-(4-(2,6-dimethyl-5-(5-(6-(trifluoromethyl)pyridin-2-yl)-1,3,4-oxadiazol-2-yl)pyrimidin-4-yl)piperidin-1-yl)ethanone]
4 | 269 | Cc1cc(-c2nnc(-c3c(C)nc(C)nc3C3CCN(C(=O)Cc4c(F)cccc4F)CC3)o2)cc(Cl)n1 [Compound C19, 1-(4-(5-(5-(2-chloro-6-methylpyridin-4-yl)-1,3,4-oxadiazol-2-yl)-2,6-dimethylpyrimidin-4-yl)piperidin-1-yl)-2-(2,6-difluorophenyl)ethanone]
5 | 657 | Cc1nc(C)c(-c2nnc(-c3ccc(Cl)cn3)o2)c(C2CCN(C(=O)Cc3c(F)cccc3F)CC2)n1 [Compound C20, 1-(4-(5-(5-(5-chloropyridin-2-yl)-1,3,4-oxadiazol-2-yl)-2,6-dimethylpyrimidin-4-yl)piperidin-1-yl)-2-(2,6-difluorophenyl)ethanone]
6 | 3010 | Cc1nc(C)c(-c2nnc(-c3cc(Cl)ccn3)o2)c(C2CCN(C(=O)Cc3c(F)cccc3F)CC2)n1 [Compound C21, 1-(4-(5-(5-(4-chloropyridin-2-yl)-1,3,4-oxadiazol-2-yl)-2,6-dimethylpyrimidin-4-yl)piperidin-1-yl)-2-(2,6-difluorophenyl)ethanone]
7 | 3960 | Cc1nc(C)c(-c2nnc(-c3ccnc(Cl)c3)o2)c(C2CCN(C(=O)Cc3c(F)cccc3F)CC2)n1 [Compound C22, 1-(4-(5-(5-(2-chloropyridin-4-yl)-1,3,4-oxadiazol-2-yl)-2,6-dimethylpyrimidin-4-yl)piperidin-1-yl)-2-(2,6-difluorophenyl)ethanone]
8 | 5290 | Cc1nc(C)c(-c2nnc(-c3ccc(Cl)nc3)o2)c(C2CCN(C(=O)Cc3c(F)cccc3F)CC2)n1 [Compound C23, 1-(4-(5-(5-(6-chloropyridin-3-yl)-1,3,4-oxadiazol-2-yl)-2,6-dimethylpyrimidin-4-yl)piperidin-1-yl)-2-(2,6-difluorophenyl)ethanone]
9 | 277 | Cc1nc(C)c(-c2nnc(-c3ccnc(C(F)(F)F)n3)o2)c(C2CCN(C(=O)c3c(F)cccc3F)CC2)n1 [Compound C24, 4-{1-[(2,6-Difluorophenyl)carbonyl]piperidin-4-yl}-2,6-dimethyl-5-{5-[2-(trifluoromethyl)pyrimidin-4-yl]-1,3,4-oxadiazol-2-yl}pyrimidine]
10 | 23.1 | Cc1nc(C)c(-c2nnc(-c3ccnc(C(F)(F)F)n3)o2)c(C2CCN(C(=O)Cc3ccccc3F)CC2)n1 [Compound C25, 1-(4-(2,6-dimethyl-5-(5-(2-(trifluoromethyl)pyrimidin-4-yl)-1,3,4-oxadiazol-2-yl)pyrimidin-4-yl)piperidin-1-yl)-2-(2-fluorophenyl)ethanone]
11 | 235 | Cc1nc(C)c(-c2nnc(-c3ccnc(C(F)(F)F)n3)o2)c(C2CCN(C(=O)C(C)c3c(F)cccc3F)CC2)n1 (centres unmarked) [Compound C26, 2-(2,6-difluorophenyl)-1-(4-(2,6-dimethyl-5-(5-(2-(trifluoromethyl)pyrimidin-4-yl)-1,3,4-oxadiazol-2-yl)pyrimidin-4-yl)piperidin-1-yl)propan-1-one]
12 | 461 | Cc1nc(C)c(-c2nnc(-c3ccnc(C(F)(F)F)n3)o2)c(C2CCN(C(=O)c3c(F)cccc3Cl)CC2)n1 [Compound C27, (2-chloro-6-fluorophenyl)(4-(2,6-dimethyl-5-(5-(2-(trifluoromethyl)pyrimidin-4-yl)-1,3,4-oxadiazol-2-yl)pyrimidin-4-yl)piperidin-1-yl)methanone]
13 | 65.2 | Cc1nc(C)c(-c2nnc(-c3ccnc(C(F)(F)F)n3)o2)c(C2CCN(C(=O)Nc3c(F)cccc3F)CC2)n1 [Compound C28, N-(2,6-Difluorophenyl)-4-(2,6-dimethyl-5-{5-[2-(trifluoromethyl)pyrimidin-4-yl]-1,3,4-oxadiazol-2-yl}pyrimidin-4-yl)piperidine-1-carboxamide]
14 | 158 | Cc1nc(C)c(-c2nnc(-c3ccnc(C(F)(F)F)n3)o2)c(C2CCN(C(=O)Nc3ccccc3Cl)CC2)n1 [Compound C29, N-(2-chlorophenyl)-4-(2,6-dimethyl-5-{5-[2-(trifluoromethyl)pyrimidin-4-yl]-1,3,4-oxadiazol-2-yl}pyrimidin-4-yl)piperidine-1-carboxamide]
15 | 49.7 | Cc1nc(C)c(-c2nnc(-c3ccnc(C(F)(F)F)n3)o2)c(C2CCN(C(=O)Nc3ccccc3C(F)(F)F)CC2)n1 [Compound C30, 4-(2,6-dimethyl-5-{5-[2-(trifluoromethyl)pyrimidin-4-yl]-1,3,4-oxadiazol-2-yl}pyrimidin-4-yl)-N-[2-(trifluoromethyl)phenyl]piperidine-1-carboxamide]
16 | 49.6 | Cc1nc(C)c(-c2nnc(-c3ccnc(C(F)(F)F)n3)o2)c(C2CCN(C(=O)Nc3c(Cl)cccc3Cl)CC2)n1 [Compound C31, N-(2,6-dichlorophenyl)-4-(2,6-dimethyl-5-{5-[2-(trifluoromethyl)pyrimidin-4-yl]-1,3,4-oxadiazol-2-yl}pyrimidin-4-yl)piperidine-1-carboxamide]
17 | 159 | Cc1nc(C)c(-c2nnc(-c3ccnc(C(F)(F)F)n3)o2)c(C2CCN(C(=O)Nc3ccccc3OC(F)(F)F)CC2)n1 [Compound C32, 4-(2,6-dimethyl-5-{5-[2-(trifluoromethyl)pyrimidin-4-yl]-1,3,4-oxadiazol-2-yl}pyrimidin-4-yl)-N-{2-[(trifluoromethyl)oxy]phenyl}piperidine-1-carboxamide]
18 | 844 | Cc1nc(C)c(-c2nnc(-c3ccnc(C(F)(F)F)n3)o2)c(C2CCN(S(=O)(=O)c3c(F)cccc3F)CC2)n1 [Compound C33, 4-{1-[(2,6-Difluorophenyl)sulfonyl]piperidin-4-yl}-2,6-dimethyl-5-{5-[2-(trifluoromethyl)pyrimidin-4-yl]-1,3,4-oxadiazol-2-yl}pyrimidine]
19 | 87.1 | Cc1nc(C)c(-c2nnc(-c3ccnc(C(F)(F)F)n3)o2)c(C2CCN(S(=O)(=O)Cc3ccccc3F)CC2)n1 [Compound C34, 4-(1-{[(2-Fluorophenyl)methyl]sulfonyl}piperidin-4-yl)-2,6-dimethyl-5-{5-[2-(trifluoromethyl)pyrimidin-4-yl]-1,3,4-oxadiazol-2-yl}pyrimidine]
20 | 608 | Cc1nc(C)c(-c2nnc(-c3ccnc(C(F)(F)F)n3)o2)c(C2CCN(C(=O)[C@H](C)c3c(F)cccc3F)CC2)n1 [Compound C35, (R)-2-(2,6-Difluorophenyl)-1-(4-(2,6-dimethyl-5-(5-(2-(trifluoromethyl)pyrimidin-4-yl)-1,3,4-oxadiazol-2-yl)pyrimidin-4-yl)piperidin-1-yl)propan-1-one]
21 | 155 | Cc1nc(C)c(-c2nnc(-c3ccnc(C(F)(F)F)n3)o2)c(C2CCN(C(=O)N(C)c3c(F)cccc3F)CC2)n1 [Compound C36, N-(2,6-Difluorophenyl)-4-(2,6-dimethyl-5-(5-(2-(trifluoromethyl)pyrimidin-4-yl)-1,3,4-oxadiazol-2-yl)pyrimidin-4-yl)-N-methylpiperidine-1-carboxamide]
22 | 22.1 | [2H]C([2H])c1nc(C)c(-c2nnc(-c3ccnc(C(F)(F)F)n3)o2)c(C2CCN(C(=O)C([2H])c3c(F)cccc3F)CC2)n1 (centres unmarked) [Compound C37, 4-{1-[(2,6-Difluorophenyl)acetyl-2-d]piperidin-4-yl}-2-methyl-d2-6-methyl-5-{5-[2-(trifluoromethyl)pyrimidin-4-yl]-1,3,4-oxadiazol-2-yl}pyrimidine]
23 | 8 | [2H]C([2H])(C(=O)N1CCC(c2nc(C)nc(C)c2-c2nnc(-c3ccnc(C(F)(F)F)n3)o2)CC1)c1c(F)cccc1F [Compound C38, 4-{1-[(2,6-Difluorophenyl)acetyl-2,2-d2]piperidin-4-yl}-2,6-dimethyl-5-{5-[2-(trifluoromethyl)pyrimidin-4-yl]-1,3,4-oxadiazol-2-yl}pyrimidine]
24 | 4520 | Cc1nc(C)c(-c2nnc(-c3ccnc(C(F)(F)F)n3)s2)c(C2CCN(C(=S)Cc3c(F)cccc3F)CC2)n1 [Compound C39, 4-{1-[2-(2,6-Difluorophenyl)ethanethioyl]piperidin-4-yl}-2,6-dimethyl-5-{5-[2-(trifluoromethyl)pyrimidin-4-yl]-1,3,4-thiadiazol-2-yl}pyrimidine]
25 | 47.5 | Cc1nc(C)c(-c2nnc(-c3ccnc(C(F)(F)F)n3)o2)c(C2CCN(C(=O)Nc3c(F)cccc3C(F)(F)F)CC2)n1 [Compound C40, 4-(2,6-Dimethyl-5-{5-[2-(trifluoromethyl)pyrimidin-4-yl]-1,3,4-oxadiazol-2-yl}pyrimidin-4-yl)-N-[2-fluoro-6-(trifluoromethyl)phenyl]piperidine-1-carboxamide]
26 | 20.5 | Cc1nc(C)c(-c2nnc(-c3ccnc(C(F)(F)F)n3)o2)c(C2CCN(C(=O)Cc3ccccc3Cl)CC2)n1 [Compound C41, 4-{1-[(2-Chlorophenyl)acetyl]piperidin-4-yl}-2,6-dimethyl-5-{5-[2-(trifluoromethyl)pyrimidin-4-yl]-1,3,4-oxadiazol-2-yl}pyrimidine]
